From patent US20210353613A1, “TREATMENT OF NEUROLOGICAL DISEASE” (Aclipse One Inc., priority 2018, published 2021)
“Also recorded” adds a separate entry of the source.

Tests used:
Type in all cases: cell-based
[1] = tested on: mouse motor neuron (MN) survival; test: Co-culture of patient iAstrocytes with mouse Hb9-GFP motor neurons: MN survival; details: for mouse Hb9GFP+ motor neuron rescue: percentage of motor neuron survival: FIG. 4, 10uM, 3 days after administration, compared to vehicle (DMSO), sALS, SOD1, C9orf72 iAstrocytes
Procedure: Induced astrocytes from control or ALS patients were used in a co-culture assay to determine their effect on mouse motor neuron (MN) survival. Mouse embryonic stem cell-derived motor neurons expressing green fluorescence protein (GFP) under the control of the HB9 promoter were sorted and added to iAstrocytes from patients and controls. […] The survival of mouse MNs was monitored on Day 1 and 3 with confocal image acquisition.
The MN survival on Day 3 was evaluated as a percentage of survived MN cells observed on Day 1.

induced MN cells = test: Co-culture of iAstrocytes with human induced motor neurons from the same donors: MN survival; details: for MN survival on Day 3: 10 μM
Procedure: Induced Astrocytes from healthy controls or ALS patients were also used in a co-culture assay to determine their effect on the survival of induced MN cells from the same healthy controls or ALS patients.
The preparation of iAstrocytes and induced MN cells has been described in Example 1. […] The MN survival on Day 3 was evaluated as a percentage of survived MN cells observed on Day 1.

misfolded SOD1 = test: Misfolded SOD1 immunocytochemistry (B8H10 antibody) in human iAstrocytes; details: for SOD1 misfolding in human iAstrocytes: FIGS. 7 and 8 legends, iAstrocytes from controls and C9orf72, SOD1, sporadic ALS patients; for misfolded SOD1 positive cells: 10 μM, 24 hours
Procedure: The preparation of iAstrocytes has been described in Example 1. At Day 5, the 96 well plate was coated with fibronectin diluted 1:400 in PBS and allowed to set for cell adhesion. iAstrocytes were first washed in an appropriate volume of PBS before incubating for 5 min at 37° C. in lml of accutase. The accutase was neutralized in an appropriate volume of iAstrocyte medium and cells were collected in a 15 ml falcon and centrifuged at 200g for 4 min to form a pellet. The pellet was resuspended in an appropriate volume of medium and the cells were counted using a Burker hemocytometer. The cells were seeded at the desired density and were left for 24 hours to adhere. […]
At Day 7, iAstrocytes were fixed in 4% PFA. These were then stained with misfolded SOD1 antibody (B8H10), CD44 to identify cell area and DAPI. Columbus analysis software was used to quantify immunocytochemistry images. In each condition, the number of nuclei was established. In astrocytes stained for misfolded SOD1 protein aggregates, the number, intensity and area of misfolded SOD1 aggregates within the nucleus and surrounding perinuclear area were quantified as well as the percentage of cells positive for misfolded SOD1 accumulation.

[2] = iAstrocytes from three ALS patients with C9orf72 mutation, mouse MNs
[3] = iAstrocytes and induced MNs from ALS patient with C9orf72 mutation

Row | SMILES | mouse Hb9GFP+ motor neuron rescue: percentage of motor neuron survival [1] | MN survival on Day 3 (percentage of survived MN cells observed on Day 1) ([1]; iAstrocytes from ALS patients with C9orf72 mutation, mouse MNs, untreated no more than 33%) | survival of MN cells on Day 3 ([1]; iAstrocytes from ALS patients with SOD1 mutation, mouse MNs) | survival of MN cells on Day 3 [1, 2] | MN survival on Day 3 (induced MN cells; [3]) | toxicity of astrocytes to MN cells (MN survival on Day 3) (induced MN cells; iAstrocytes and induced MNs from ALS patient with SOD1 mutation) | MN survival on Day 3 (induced MN cells; iAstrocytes and induced MNs from sALS patients) | percentage of misfolded SOD1 perinuclear aggregates (DMSO = 100%) (misfolded SOD1; FIG. 9, 10uM, 48 hours, iAstrocytes of sALS, SOD1, C9orf72 patients and controls, listed as (6a5)-6-methyl-5,6,6a,7-tetrahydro-4H-dibenzo[de,g]quinoline-10,11-diol) | SOD1 misfolding in human iAstrocytes (misfolded SOD1) | misfolded SOD1 positive cells (misfolded SOD1; SOD1 astrocytes compared with other cell types) | misfolded SOD1 positive cells (misfolded SOD1; all cell types (control, C9orf72, SOD1, sporadic iAstrocytes)) | survival of MN cells on Day 3 ([1]; iAstrocytes from three sporadic ALS (sALS) patients, mouse MNs)
1 | CN1CCc2cccc3c2[C@@H]1Cc1ccc(O)c(O)c1-3 [(6aS)-6-methyl-5,6,6a,7-tetrahydro-4H-dibenzo[de,g]quinoline-10,11-diol] | increase in percentage of motor neuron survival | up to 38% | most significant improvement | significantly improved | the most significant outcome | most effectively dampened the toxicity of SOD1-derived astrocytes | beneficial at reducing toxicity caused by iAstrocytes from some sporadic patients over others | reduction of misfolded SOD1 in all patient lines treated; also recorded: significant reduction in misfolded SOD1 in 6 different patient lines | Reduced SOD1 misfolding | greatest decrease in SOD1 astrocytes | reduction of misfolded SOD1 positive cells across all cell types | –
2 | C=C1CC[C@@H]2[C@](C)(CO)[C@H](O)CC[C@@]2(C)[C@@H]1C/C=C1/C(=O)OC[C@H]1O [andrographolide, reference compound] | increase in percentage of motor neuron survival | – | – | significantly improved | the most significant outcome | – | – | – | Reduced SOD1 misfolding | – | – | most significantly improved
3 | Nc1nc2ccc(OC(F)(F)F)cc2s1 [riluzole, reference compound] | – | – | – | – | – | – | – | – | Reduced SOD1 misfolding | – | – | –
